Broadly, the mortality is the percentage killed.

This is an account of results in patent US20220386611A1, “NOVEL HETEROARYL-TRIAZOLE COMPOUNDS AS PESTICIDES” (Bayer Aktiengesellschaft, priority 2019, published 2022).

Holding throughout (assay type): in vivo
Assay [1] relates to adult brown dog ticks (Rhipicephalus sanguineus). The assay can be described thus: Rhipicephalus sanguineus in-vitro contact test with adult brown dog ticks. To be noted: 5 μg/cm^2 (=500 g/ha), after 48 hours, read-out: efficacy (ticks dead or moribund). In a few lines: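 Efficacy (%) reflects the fraction of adult ticks dead or moribund after 48 h of contact with a dried acetone film on tube walls at 5 μg/cm^2 (from 900 ppm). Moribund status was assessed by inability to climb away from heat at 45-50° C.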

The subject of assay [2] is cattle ticks (Rhipicephalus microplus) strain Parkhurst, SP-resistant. The assay is described as follows: Rhipicephalus (Boophilus) microplus dip test. To be noted: 100 ppm, after 7 days. As to the method:
Rhipicephalus (Boophilus) microplus—Dip Test
Test animal: cattle ticks (Rhipicephalus microplus) strain Parkhurst, SP-resistant
Solvent: dimethyl sulfoxide
To produce a suitable preparation of active compound, 10 mg of active compound are dissolved in 0.5 mL solvent, and the concentrate is diluted with water to the desired concentration.
This compound solution is pipetted into tubes. 8-10 engorged, adult, female cattle ticks (Rhipicephalus microplus) are placed in perforated tubes. These tubes are immersed in the aqueous compound solution until the ticks are completely moistened. After the liquid has drained off, the ticks are transferred to a filter paper in a plastic tray and stored in a climate chamber.
After 7 days egg deposition of fertile eggs is monitored. Eggs where fertility is not visible are stored in a climate chamber till hatching after about 42 days. An efficacy of 100% means all eggs are infertile; 0% means all eggs are fertile.

For assay [3], the system named is Blattella germanica strain PAULINIA
The assay can be described thus: Blattella germanica test (BLTTGE surface treatment & contact assay). Particulars: surface concentration 20 mg/m^2, 30 minutes exposure, 24 hours after contact, read-out: efficacy (mortality). As to the method:
Blattella germanica Test (BLTTGE Surface Treatment & Contact Assay)
Solvent: Aceton+2000 ppm rapeseed oil methyl ester (RME)
In order to produce a sufficient, active ingredient containing solution it is necessary to solve the test compound in the solvent-mix (acetone at 2 mg/ml/RME 2000 ppm). This solution is pipetted onto a glazed tile and after evaporation of the acetone, adult animals of the species Blattella germanica strain PAULINIA are placed onto the dried surface. The exposure time is 30 minutes. Mortality in percent (%) is determined 24 hours after contact of the insects to the treated surface. 100% mortality means that all tested insects are dead, whereas 0% means that no insect died.

Assay [4] deals with fall armyworm larvae (Spodoptera frugiperda). The assay can be described thus: Spodoptera frugiperda spray test. To be noted: in Zea mays, 168 h.
Assay [5] concerns adult engorged female ticks (Rhipicephalus microplus). The assay can be described thus: Rhipicephalus (Boophilus) microplus injection test. Particulars: 168 h, after 7 days, read-out: efficacy (infertile eggs); for pest or weed control at 0.004 mg: 4 μg/animal. In a few lines: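 Efficacy is scored from egg fertility, with 100% meaning every egg infertile and 0% every egg fertile. Five engorged females per test received 1 μL DMSO solution abdominally. Eggs of unclear fertility were kept until hatching, about 42 days.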

Assay [6] concerns green peach aphid (Myzus persicae). The assay can be described thus: Myzus persicae spray test. Particulars: foliar, 120 h, after 5 days, Chinese cabbage leaf disks. In outline:
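Chinese cabbage leaf disks infested with all instars of Myzus persicae were sprayed with compound formulated in acetone/dimethylformamide and diluted in water containing 1000 ppm emulsifier. Percent mortality was scored after 5 days.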

For `CC(NC(=O)c1cc(C(F)(F)F)cc(C(F)(F)F)c1)c1nc(Cl)nn1-c1ncccn1` (centres unmarked) [Example I-002], in assay [1], the pest or weed control at 5 µg/cm2, 500 g/ha came out at 80%. Moreover, in assay [2], the “efficacy (infertile eggs)” value amounted to 80%. The mortality at 20 mg/m2 in assay [3] was 80 to 100%. In addition, the mortality at 100 g/ha in assay [4] stood at 100%. Besides, the pest or weed control at 0.004 mg in assay [5] was 100%. The pest or weed control at 0.02 mg in assay [5] (20 μg/animal) came to 100%.
With `CC(NC(=O)c1cc(C(F)(F)F)cc(C(F)(F)F)c1)c1nc(Br)nn1-c1ncccn1` (centres unmarked) [Example I-010], the pest or weed control at 5 µg/cm2, 500 g/ha in assay [1] came to 100%. The mortality at 100 g/ha in assay [6] turned out to be 90%; in assay [4] it was 100%. In assay [5], the pest or weed control at 0.004 mg turned out to be 100%.
Turning to `CC(NC(=O)c1cc(C(F)(F)F)cc(C(F)(F)F)c1)c1nc(I)nn1-c1ncccn1` (centres unmarked) [Example I-021], the pest or weed control at 5 µg/cm2, 500 g/ha in assay [1] came out at 80%. In addition, the mortality at 100 g/ha turned out to be 90% in assay [6] and 100% in assay [4]. Also, the mortality at 20 mg/m2 in assay [3] lay within 80 to 100%.
